In patent publication US12630563B2, “Macrocyclic RIP2-kinase inhibitors” (Oncodesign S.A., priority 2020, dated 2026):

What was measured:
[1] = Human protein binding free fraction (Assay A, RED plate equilibrium dialysis); format: in vitro ADME; conditions: plasma, read-out: Assay A: Human protein binding free fraction (F %)
Method: Human protein binding protocol: Compound was added to plasma or brain homogenate and incubated at 2 μM at 37° C. in the RED plate (Thermo n° 96009, cut-off 8000 Da) against PBS buffer. After 4 h, aliquots of plasma and buffer side were transferred to a well containing acetonitrile with an internal standard. After protein precipitation, samples were centrifuged and supernatant was injected in LC/MS/MS. Standards were prepared in the same matrix and treated as samples.
A fraction unbound (fuplasma) was determined for each plasma sample as follows: […]

[2] = Human Clint, microsomal metabolic stability (Assay B); format: in vitro ADME; conditions: pooled liver microsomes 0.5 mg/mL, 0.5 μM compound, NADPH
Method: Human Clint protocol: Pooled liver microsomes (Sekisui Xenotech) were diluted at 0.5 mg/mL in 50 mM phosphate buffer, pH 7.4 then pre-incubated with 0.5 μM […] for 7 min at 37° C. The reactions were initiated by adding prewarmed cofactor (0.44 mM NADPH). Aliquots of samples were taken at 0, 5, 10, 20 and 45 min and the reactions stopped by addition of cold acetonitrile containing an internal standard. Samples were centrifuged at 3000 g for 10 min at 4° C. and then supernatants were analyzed by LC/MS/MS for the amount of parent compound remaining.

[3] = molecular target: T1, recombinant hRIPK2 protein (kinase domain aa 1-299-His-tagged) (Homo sapiens, UniProt O43353); assay: RIPK2 AlphaLISA assay (displacement of bead-bound CZC-8004 from hRIPK2); format: binding; conditions: recombinant hRIPK2 kinase domain 10 nM, 2 h at 23° C.
T1 construct: kinase domain aa 1-299-His-tagged; purchased Life Technologies PR7829A
Method in brief: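 His-tagged kinase domain (10 nM, as diluted) was mixed with compound (0.8% DMSO), acceptor beads bearing the probe CZC-8004 and Ni2+ donor beads. After 2 h at 23 °C, AlphaLISA signal was read. Loss of signal reflects displacement of the probe from RIPK2.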

hERG potassium channel = molecular target: T2, hERG potassium channel (Homo sapiens, UniProt Q12809); assay: hERG q-patch assay (Assay C, Sophion Qube automated electrophysiology); format: cell-based; conditions: read-out: Assay C: hERG q-patch inhibition IC50
T2 construct: host or cells: HEK (hERG-HEK stably transfected cell line)
Method: hERG q-patch assay protocol: The potential for test compound to inhibit the hERG potassium channel was determined using the Charles River ChanTest® hERG-HEK stably transfected cell line on the Sophion Qube automated electrophysiology platform. The assay was performed at room temperature and recordings of the hERG tail current from a population of cells were made using multi-hole QChips.

T2 sequence (Q12809 whole entry): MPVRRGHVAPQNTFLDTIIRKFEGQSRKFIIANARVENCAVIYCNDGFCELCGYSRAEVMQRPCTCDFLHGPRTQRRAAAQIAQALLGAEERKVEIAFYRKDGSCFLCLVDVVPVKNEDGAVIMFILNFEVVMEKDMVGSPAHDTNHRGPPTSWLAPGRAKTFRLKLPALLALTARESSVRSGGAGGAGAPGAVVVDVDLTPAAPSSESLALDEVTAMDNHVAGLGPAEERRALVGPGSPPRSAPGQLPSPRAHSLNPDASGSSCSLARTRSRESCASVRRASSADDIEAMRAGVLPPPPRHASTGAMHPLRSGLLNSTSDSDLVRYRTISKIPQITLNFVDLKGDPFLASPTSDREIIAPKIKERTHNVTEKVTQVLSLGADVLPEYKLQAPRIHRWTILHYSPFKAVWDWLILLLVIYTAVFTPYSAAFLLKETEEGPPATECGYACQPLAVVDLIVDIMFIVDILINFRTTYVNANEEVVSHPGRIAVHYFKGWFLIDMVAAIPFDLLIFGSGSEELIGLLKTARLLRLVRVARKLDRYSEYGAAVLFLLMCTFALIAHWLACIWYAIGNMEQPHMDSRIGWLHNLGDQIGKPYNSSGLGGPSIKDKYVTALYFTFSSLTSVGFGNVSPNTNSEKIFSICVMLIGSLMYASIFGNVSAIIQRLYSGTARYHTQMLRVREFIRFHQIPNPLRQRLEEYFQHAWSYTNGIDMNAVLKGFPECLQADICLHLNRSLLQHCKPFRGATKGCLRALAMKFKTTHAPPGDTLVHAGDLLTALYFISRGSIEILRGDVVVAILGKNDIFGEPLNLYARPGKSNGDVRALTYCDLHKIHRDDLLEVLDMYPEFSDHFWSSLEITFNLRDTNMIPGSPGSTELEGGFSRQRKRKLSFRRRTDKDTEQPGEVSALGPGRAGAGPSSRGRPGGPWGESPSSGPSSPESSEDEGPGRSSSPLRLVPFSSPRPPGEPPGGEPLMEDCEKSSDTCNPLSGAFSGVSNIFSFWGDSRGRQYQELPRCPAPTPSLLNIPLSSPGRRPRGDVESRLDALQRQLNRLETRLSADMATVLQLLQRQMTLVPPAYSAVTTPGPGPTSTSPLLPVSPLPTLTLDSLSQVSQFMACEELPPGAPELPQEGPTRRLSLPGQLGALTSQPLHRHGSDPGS
T1 sequence (O43353 1-299): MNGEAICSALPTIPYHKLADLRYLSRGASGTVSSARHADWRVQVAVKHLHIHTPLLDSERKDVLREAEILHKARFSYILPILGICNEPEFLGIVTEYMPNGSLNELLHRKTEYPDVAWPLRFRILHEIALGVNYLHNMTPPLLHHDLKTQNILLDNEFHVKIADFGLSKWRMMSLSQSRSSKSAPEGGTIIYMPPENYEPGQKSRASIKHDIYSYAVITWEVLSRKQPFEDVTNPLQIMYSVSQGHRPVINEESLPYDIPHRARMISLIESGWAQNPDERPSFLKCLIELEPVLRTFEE

Row | SMILES | fraction unbound at 4 h, 2 μM [1] | IC50 [3] | Assay B: Human Clint (hCl) [2] | IC50 (hERG potassium channel)
1 | CO[C@@H]1C[C@H]2COc3ccn4ncc(c4n3)-c3cc(F)cc(c3)NCCN2C1=O [Example 3, (12R,14S)-4-fluoro-12-methoxy-16-oxa-7,10,20,21,24-pentaazapentacyclo[15.5.2.1^2,6.0^10,^14.0^20,^23] pentacosa-1(23),2(25),3,5,17(24),18,21-heptaen-11-one] | > 0.01 | < 10 nM | ++ (++ indicates hCl between 6-18 ug/min/mg prot) | > 10000 nM
2 | CO[C@@H]1C[C@H]2COc3nc4c(cnn4cc3-c3cnn(C)c3)-c3cc(F)cc(c3)NCCN2C1=O [Example 67, (12R,14S)-4-fluoro-12-methoxy-18-(1-methyl-1H-pyrazol-4-yl)-16-oxa-7,10,20,21,24-pentaazapentacyclo[15.5.2.1^2,6.0^1°,^14.0^2°,^23]pentacosa-1(23),2(25),3,5,17(24), 18,21-heptaen-11-one] | – | < 10 nM | +++ (+++ indicates hCl equal or below 5 ug/min/mg prot) | > 10000 nM

Second part, led by results:

Row | fraction unbound at 4 h, 2 μM [1] | IC50 [3] | SMILES | Assay B: Human Clint (hCl) [2] | IC50 (hERG potassium channel)
3 | > 0.01 | < 10 nM | CO[C@@H]1C[C@H]2COc3ccn4ncc(c4n3)-c3cc(cc(C(C)=O)c3)NCCN2C1=O [Example 54, (12R,14S)-4-acetyl-12-methoxy-16-oxa-7,10,20,21,24-pentaazapentacyclo[15.5.2.1^2,6.0^1°,^14.0^2°,^23]pentacosa-1(23),2,4,6(25),17(24),18,21-heptaen-11-one] | ++ (++ indicates hCl between 6-18 ug/min/mg prot) | > 10000 nM
4 | – | < 10 nM | CO[C@@H]1C[C@H]2COc3ccn4ncc(c4n3)-c3cc(cc(C(=O)N(C)OC)c3)NCCN2C1=O [Example 55, (12R,14S)—N,12-dimethoxy-N-methyl-11-oxo-16-oxa-7,10,20,21,24-pentaazapentacyclo[15.5.2.1^2,6.0^1°,^14.0^2°,^23]pentacosa-1(23),2,4,6(25),17(24),18,21-heptaene-4-carboxamide] | +++ (+++ indicates hCl equal or below 5 ug/min/mg prot) | > 10000 nM
5 | > 0.01 | < 10 nM | O=C1[C@H](OCCO)C[C@H]2COc3ccn4ncc(c4n3)-c3cc(F)cc(c3)NCCN12 [Example 79, (12R,14S)-4-fluoro-12-(2-hydroxyethoxy)-16-oxa-7,10,20,21,24-pentaazapentacyclo[15.5.2.1^2,6.0^1°,^14.0^2°,^23]pentacosa-1(23),2(25),3,5,17(24),18,21-heptaen-11-one] | +++ (+++ indicates hCl equal or below 5 ug/min/mg prot) | 1000 to 10000 nM
